From patent publication US11702414B2, “Thiadiazole IRAK4 inhibitors” (Gilead Sciences, Inc., priority 2018, dated 2023)
Where two headings read alike, the source gives them in different places.

Columns and labels:
TNFα = experiment: IRAK4 Monocyte TNFα Cell Based Assay; set-up: species or system human; conditions: human monocytes, second part of Table 2 (compounds 33-343), unit inferred, read-out: EC50MONO TNF HTRF
Description: IRAK4 Monocyte TNFα Cell Based Assay Procedure:
The cell suspension was then plated at a density of 5,000 cells/well onto black 384 well Greiner clear bottom plates. Plates were pre-spotted with test compounds and serially diluted in DMSO where 40 nL/well were delivered using the Echo 550 acoustic liquid dispenser (Labcyte®) for a final DMSO concentration of 0.1%. Plated cells were treated with compound for 1 hour at 37° C. Cells were then stimulated with 50 pg/ml of LPS (Sigma) excluding outside columns of plate used for unstimulated cell control wells. Cells were incubated for an additional 4 hours at 37° C. Cells were then spun out of the media and 5μl of sample were taken and analyzed for total TNFα content using the TR-FRET Human TNFα detection system (CisBio). This system utilizes two labeled antibodies (cryptate and XL665) that bind to two different epitopes of the TNFα molecule and produce FRET signal proportional to the concentration of TNFα in the sample. Detection antibodies are mixed 50:50 and 5 μL were dispensed into each well. Plates were covered with clear seals and incubated at room temp overnight. […] Percent of control was calculated as follows: % Control=100×(RatioSample−Ratio0% Stimulation)/(Ratio100% Stimulation−Ratio0% Stimulation) where unstimulated cells (0% stimulation) were the negative control and stimulated cells (100% stimulation) were used as the positive control.

IRAK4 enzyme = IRAK4 enzyme (Homo sapiens (Human), UniProt Q9NWZ3); experiment: IRAK4 Biochemical Assay (TR-FRET, STK1 KinEASE)
Chain of IRAK4 enzyme (Q9NWZ3 whole entry): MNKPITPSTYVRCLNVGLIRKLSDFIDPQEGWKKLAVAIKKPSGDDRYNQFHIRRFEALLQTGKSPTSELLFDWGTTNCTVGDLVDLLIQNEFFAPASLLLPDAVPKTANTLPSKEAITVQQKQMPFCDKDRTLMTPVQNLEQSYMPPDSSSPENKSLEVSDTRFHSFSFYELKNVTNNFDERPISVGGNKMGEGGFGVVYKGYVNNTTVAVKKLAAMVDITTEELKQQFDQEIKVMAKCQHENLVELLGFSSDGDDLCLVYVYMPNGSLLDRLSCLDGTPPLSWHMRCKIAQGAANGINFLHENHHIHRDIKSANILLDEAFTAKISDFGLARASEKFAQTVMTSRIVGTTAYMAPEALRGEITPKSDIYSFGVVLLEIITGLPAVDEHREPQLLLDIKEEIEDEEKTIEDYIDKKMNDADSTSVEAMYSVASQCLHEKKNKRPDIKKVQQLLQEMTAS
Description: IRAK4 enzyme (Carna Biosciences, Chuo-ku, Kobe, Japan) activity was measured by detecting phosphorylated peptide substrate formation using an antibody against the phosphorylated peptide substrate. This is a time-resolved fluorescence resonance energy transfer (TR-FRET) immunoassay, based on the STK1 KinEASE Assay (Cisbio, Bedford, Mass.). The assay was designed as a simple two-step, endpoint assay (a 5 μl enzyme reaction followed by 5 μl stop and detect Solution) performed in ProxiPlate-384 Plus plates (Perkin Elmer, Waltham, Mass.). […] Compounds diluted in DMSO were spotted into 384 well plates using a Labcyte® Echo 550 Liquid Handling System prior to addition of IRAK4 enzyme and peptide substrate. Reaction solutions were delivered using a Multi-Flo (Bio-Tek Instruments). The enzyme and peptide solution was incubated with compound for 15 minutes at room temp before the reaction was initiated by the addition of ATP. The standard 5 μl reaction mixture contained 500 μM ATP, 2 μM peptide (STK1 Peptide), 0.75 nM of IRAK4 in reaction buffer (50 mM HEPES, pH 7.0, 0.02% NaN3, 0.01% BSA, 0.1 mM Orthovanadate, 5 mM MgCl2, 0.025% NP-40, 1 mM DTT). After 120 min of incubation at room temperature, 5 μl of Stop and Detect Solution (1:100 Cryptate labeled anti-phosphorylated peptide antibody solution and 125 nM Tracer in a 50 mM HEPES pH 7.0 detection buffer containing sufficient EDTA) was added. The plate was then further incubated for 60 minutes at room temperature and read on Envision 2103 Multilabeled reader (PerkinElmer) with excitation/emission/FRET emission at 340 nm/615 nm/665 nm, respectively. Fluorescence intensities at 615 nm and 665 nm emission wavelengths were expressed as a ratio (665 nm/615 nm). Percentage of inhibition was calculated as below: % Inhibition=100×(RatioSample−Ratio0% Inhibition)/(Ratio100% Inhibition−Ratio0% Inhibition)
The 0% inhibition value comes from control wells lacking inhibitor.

[1] = second part of Table 2 (compounds 33-343), unit inferred, read-out: IC50 IRAK4-HTBS

Compound | EC50 (TNFα; Homo sapiens, Monocyte) [nM] | IC50 (IRAK4 enzyme) [nM] | EC50 (TNFα) [nM] | IC50 (IRAK4 enzyme; [1]) [nM]
CC(C)Nc1cc(-c2ccc3cc(C#N)cnn23)ncc1-c1nnc(N2CCC(O)(CF)CC2)s1 [Example 189, 7-(5-(5-(4-(fluoromethyl)-4-hydroxypiperidin-1-yl)-1,3,4-thiadiazol-2-yl)-4-(isopropylamino)pyridin-2-yl)pyrrolo[1,2-b]pyridazine-3-carbonitrile] | 16.3 | 1.02 | – | –
CC(C)Nc1cc(-c2ccc3cc(C#N)cnn23)ncc1-c1nnc(N2CC3(CCC(C)(O)CC3)C2)s1 [Example 82, 7-(5-(5-(7-hydroxy-7-methyl-2-azaspiro[3.5]nonan-2-yl)-1,3,4-thiadiazol-2-yl)-4-(isopropylamino)pyridin-2-yl)pyrrolo[1,2-b]pyridazine-3-carbonitrile] | 23.1 | 1.18 | – | –
N-((1R,5S,8s)-3-(5-(6-(3-cyanopyrrolo[1,2-b]pyridazin-7-yl)-4-(isopropylamino)pyridin-3-yl)-1,3,4-thiadiazol-2-yl)-3-azabicyclo[3.2.1]octan-8-yl)-2-((dimethyl(oxo)-16-sulfanylidene)amino)acetamide [Example 98] | – | – | 3.2 | 1.13
CC(C)Nc1cc(-c2ccc3cc(C#N)cnn23)ncc1-c1nnc(N2CCC[C@H]2CO)s1 [Compound 329, (S)-7-(5-(5-(2-(hydroxymethyl)pyrrolidin-1-yl)-1,3,4-thiadiazol-2-yl)-4-(isopropylamino)pyridin-2-yl)pyrrolo[1,2-b]pyridazine-3-carbonitrile] | 54.2 | 0.84 | – | –
CC(C)(O)C(=O)NC12CCC(c3nnc(-c4cnc(-c5ccc6cc(C#N)cnn56)cc4NC4COC4)s3)(C1)C2 [Compound 335, N-(4-(5-(6-(3-cyanopyrrolo[1,2-b]pyridazin-7-yl)-4-(oxetan-3-ylamino)pyridin-3-yl)-1,3,4-thiadiazol-2-yl)bicyclo[2.1.1]hexan-1-yl)-2-hydroxy-2-methylpropanamide] | 48.9 | 0.64 | – | –
CC(=O)N[C@H]1CC[C@@H](c2nnc(-c3cnc(-c4ccc5cc(C#N)cnn45)cc3NC(C)C)s2)OC1 [Example 84, N-((3S,6S)-6-(5-(6-(3-cyanopyrrolo[1,2-b]pyridazin-7-yl)-4-(isopropylamino)pyridin-3-yl)-1,3,4-thiadiazol-2-yl)tetrahydro-2H-pyran-3-yl)acetamide] | 8.6 | 0.47 | – | –
CC(C)Nc1cc(-c2ccc3cc(C#N)cnn23)ncc1-c1nnc(N2CC(N3CCC(F)(F)C3)C2)s1 [Compound 328, 7-(5-(5-(3-(3,3-difluoropyrrolidin-1-yl)azetidin-1-yl)-1,3,4-thiadiazol-2-yl)-4-(isopropylamino)pyridin-2-yl)pyrrolo[1,2-b]pyridazine-3-carbonitrile] | 80.5 | 1.02 | – | –
CC(=O)N1C[C@@H]2C[C@H]1CN2c1nnc(-c2cnc(-c3ccc4cc(C#N)cnn34)cc2NC(C)C)s1 [Example 302, 7-(5-(5-((1S,4S)-5-acetyl-2,5-diazabicyclo[2.2.1]heptan-2-yl)-1,3,4-thiadiazol-2-yl)-4-(isopropylamino)pyridin-2-yl)pyrrolo[1,2-b]pyridazine-3-carbonitrile] | 5.3 | 0.59 | – | –
CC(=O)NC1CCC(F)(c2nnc(-c3cnc(-c4ccc5cc(C#N)cnn45)cc3NC3COC3)s2)CC1 (single isomer, unassigned) [Example 196, N-(4-(5-(6-(3-cyanopyrrolo[1,2-b]pyridazin-7-yl)-4-(oxetan-3-ylamino)pyridin-3-yl)-1,3,4-thiadiazol-2-yl)-4-fluorocyclohexyl)acetamide] | – | – | – | 1.62
CC(=O)NC1CCC(F)(c2nnc(-c3cnc(-c4ccc5cc(C#N)cnn45)cc3NC3COC3)s2)CC1 (single isomer, unassigned) [Example 195, N-(4-(5-(6-(3-cyanopyrrolo[1,2-b]pyridazin-7-yl)-4-(oxetan-3-ylamino)pyridin-3-yl)-1,3,4-thiadiazol-2-yl)-4-fluorocyclohexyl)acetamide] | – | – | – | 1.09
